{"source": "paper PMC8048639", "about": "(2021)", "key": {"[1]": {"tested_on": "poly(dAdT)2 (DNA, polymer) AT", "assay": "UV thermal melting at 260 nm", "conditions": "Na+ (sodium cacodylate buffer, I=0.05 M); pH 7.0; r=[compound]/[polynucleotide]=0.1; per base"}, "[2]": {"tested_on": "poly(rA)-poly(rU) (RNA, polymer) A/U", "assay": "UV thermal melting at 260 nm", "conditions": "Na+ (sodium cacodylate buffer, I=0.05 M); pH 7.0; r=[compound]/[polynucleotide]=0.1; per base"}, "[3]": {"tested_on": "poly(dAdT)2 (DNA, polymer) AT", "assay": "fluorimetric titration, Scatchard fit", "conditions": "Na+ (sodium cacodylate buffer, I=0.05 M), pH 7.0, n fixed, per base"}, "[4]": {"tested_on": "poly(dGdC)2 (DNA, polymer) GC", "assay": "fluorimetric titration, Scatchard fit", "conditions": "Na+ (sodium cacodylate buffer, I=0.05 M), pH 7.0, n fixed, per base"}, "[5]": {"tested_on": "poly(rA)-poly(rU) (RNA, polymer) A/U", "assay": "fluorimetric titration, Scatchard fit", "conditions": "Na+ (sodium cacodylate buffer, I=0.05 M), pH 7.0, per base"}, "[6]": {"tested_on": "poly(dA) (DNA, polymer) A", "assay": "fluorimetric titration, Scatchard fit", "conditions": "Na+ (sodium cacodylate buffer, I=0.05 M); pH 7.0; compound 5×10^-8 M; n fixed; per base"}, "[7]": {"tested_on": "poly(rU) (RNA, polymer) U", "assay": "fluorimetric titration, Scatchard fit", "conditions": "Na+ (sodium cacodylate buffer, I=0.05 M), pH 7.0, n fixed, per base"}, "[8]": {"tested_on": "poly(dT) (DNA, polymer) T", "assay": "fluorimetric titration, Scatchard fit", "conditions": "Na+ (sodium cacodylate buffer, I=0.05 M), pH 7.0, n fixed, per base"}, "[9]": {"tested_on": "poly(rG) (RNA, polymer) G", "assay": "fluorimetric titration, Scatchard fit", "conditions": "Na+ (sodium cacodylate buffer, I=0.05 M), pH 7.0, n fixed, per base"}, "[10]": {"tested_on": "poly(rC) (RNA, polymer) C", "assay": "fluorimetric titration, Scatchard fit", "conditions": "Na+ (sodium cacodylate buffer, I=0.05 M), pH 7.0, n fixed, per base"}, "[11]": {"tested_on": "poly(rA) (RNA, polymer) A", "assay": "fluorimetric titration, Scatchard fit", "conditions": "Na+ (sodium cacodylate buffer, I=0.05 M), pH 7.0, n fixed, per base"}, "[12]": {"conditions": "compound 5×10^-8 M, apparent, lowered by competing aggregation"}, "[13]": {"conditions": "compound 5×10^-8 M, aggregation at excess dye"}}, "data": [{"smiles": "Cc1cc(C#Cc2ccc(-c3ccc(C#Cc4cc(C)c(B(c5c(C)cc([N+](C)(C)C)cc5C)c5c(C)cc([N+](C)(C)C)cc5C)c(C)c4)s3)s2)cc(C)c1B(c1c(C)cc([N+](C)(C)C)cc1C)c1c(C)cc([N+](C)(C)C)cc1C", "values": [{"measurement": "ΔT m", "setting": "[1]", "value": "3 ± 0.5", "unit": "°C"}, {"measurement": "ΔT m", "setting": "[2]", "value": "7 ± 0.5", "unit": "°C"}, {"measurement": "log K S", "setting": "[3]; [12]", "value": 5.1}, {"measurement": "log K S", "setting": "[4]; [12]", "value": 6.6}, {"measurement": "log K S", "setting": "[5]; compound 5×10^-8 M, apparent, lowered by competing aggregation, n fixed", "value": 6.0}, {"measurement": "log K S", "setting": "[6]", "value": 7.6}, {"measurement": "log K S", "setting": "[7]; compound 5×10^-8 M", "value": 7.0}, {"measurement": "log K S", "setting": "[8]; compound 5×10^-8 M", "value": 7.6}, {"measurement": "log K S", "setting": "[9]; [13]", "value": 7.1}, {"measurement": "log K S", "setting": "[10]; [13]", "value": 7.4}]}, {"smiles": "Cc1cc(C#Cc2ccc(C#Cc3cc(C)c(B(c4c(C)cc([N+](C)(C)C)cc4C)c4c(C)cc([N+](C)(C)C)cc4C)c(C)c3)cc2)cc(C)c1B(c1c(C)cc([N+](C)(C)C)cc1C)c1c(C)cc([N+](C)(C)C)cc1C", "values": [{"measurement": "ΔT m", "setting": "[2]", "value": "9 ± 0.5", "unit": "°C"}, {"measurement": "log K S", "setting": "[3]; compound 5×10^-9 M", "value": 7.8}, {"measurement": "log K S", "setting": "[4]", "value": 8.4}, {"measurement": "log K S", "setting": "[5]; n fixed", "value": 8.6}, {"measurement": "log K S", "setting": "[11]", "value": 8.4}, {"measurement": "log K S", "setting": "[7]", "value": 7.4}, {"measurement": "log K S", "setting": "[8]", "value": 8.5}, {"measurement": "log K S", "setting": "[9]", "value": 8.7}, {"measurement": "log K S", "setting": "[10]", "value": 7.1}]}, {"smiles": "Cc1cc([N+](C)(C)C)cc(C)c1B(c1c(C)cc([N+](C)(C)C)cc1C)c1c2ccccc2c(B(c2c(C)cc([N+](C)(C)C)cc2C)c2c(C)cc([N+](C)(C)C)cc2C)c2ccccc12", "values": [{"measurement": "ΔT m", "setting": "[2]", "value": "0 ± 0.5", "unit": "°C"}, {"measurement": "log K S", "setting": "[3]; compound 5×10^-8 M", "value": 7.4}, {"measurement": "log K S", "setting": "[4]; compound 5×10^-8 M", "value": 7.8}, {"measurement": "log K S", "setting": "[5]; compound 5×10^-8 M, n fixed", "value": 7.9}, {"measurement": "log K S", "setting": "[11]; compound 5×10^-8 M", "value": 7.1}, {"measurement": "log K S", "setting": "[7]; compound 5×10^-8 M", "value": 7.1}, {"measurement": "log K S", "setting": "[9]; compound 5×10^-8 M", "value": 7.3}, {"measurement": "log K S", "setting": "[10]; compound 5×10^-8 M", "value": 7.2}]}, {"smiles": "Cc1cc(C#Cc2c3ccccc3c(C#Cc3cc(C)c(B(c4c(C)cc([N+](C)(C)C)cc4C)c4c(C)cc([N+](C)(C)C)cc4C)c(C)c3)c3ccccc23)cc(C)c1B(c1c(C)cc([N+](C)(C)C)cc1C)c1c(C)cc([N+](C)(C)C)cc1C", "values": [{"measurement": "ΔT m", "setting": "[1]", "value": "6 ± 0.5", "unit": "°C"}, {"measurement": "ΔT m", "setting": "[2]", "value": "8 ± 0.5", "unit": "°C"}, {"measurement": "log K S", "setting": "[3]; compound 1×10^-8 M, aggregation at excess dye", "value": 7.7}, {"measurement": "log K S", "setting": "[4]; compound 1×10^-8 M", "value": 7.9}, {"measurement": "log K S", "setting": "[5]; compound 1×10^-8 M, limit only", "value": "> 9"}, {"measurement": "log K S", "setting": "[11]", "value": 7.8}, {"measurement": "log K S", "setting": "[7]", "value": 8.8}, {"measurement": "log K S", "setting": "[8]", "value": 7.4}, {"measurement": "log K S", "setting": "[9]", "value": 8.7}]}]}
